Each compound was assayed against AT2 Receptor (AT2R) (Homo sapiens (Human), UniProt P50052) (assay: Measurement of inhibitory activity on AT2 receptor (Tag-lite HTRF, Tb-labeled AT2R cells, angiotensin receptor red agonist)). Details: 1 h room temperature.
Assay type: binding

AT2 Receptor (AT2R), sequence (P50052 whole entry): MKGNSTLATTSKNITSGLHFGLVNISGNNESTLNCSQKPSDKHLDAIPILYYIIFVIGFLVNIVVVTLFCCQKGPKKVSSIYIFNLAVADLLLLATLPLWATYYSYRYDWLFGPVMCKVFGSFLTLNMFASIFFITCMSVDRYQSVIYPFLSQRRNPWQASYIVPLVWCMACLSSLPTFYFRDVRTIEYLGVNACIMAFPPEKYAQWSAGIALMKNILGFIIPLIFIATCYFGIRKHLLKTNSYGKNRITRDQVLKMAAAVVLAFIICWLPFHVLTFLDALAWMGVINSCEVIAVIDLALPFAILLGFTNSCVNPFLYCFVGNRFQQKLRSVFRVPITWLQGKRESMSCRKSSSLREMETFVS

| Compound | IC50 |
| --- | --- |
| CC(c1ccsc1)N(C)C(=O)N1[C@H]2CC[C@@H]1[C@@H](C(=O)O)N(C(=O)N(c1ccccc1)c1ccccc1)C2 (stereo partly drawn) [Compound C229, (1R,2S,5S)-3-(diphenylcarbamoyl)-8-(methyl (1-(thiophene-3-yl)ethyl)carbamoyl)-3,8-diazabicyclo[3.2.1] octane-2-carboxylic acid] | 10.1 nM |
| CC(Cc1ccccc1)C(=O)N1[C@H]2CC[C@@H]1[C@@H](C(=O)O)N(C(=O)C(c1ccccc1)c1ccccc1)C2 (stereo partly drawn) [Compound C230, (1R,2S,5S)-3-(2,2-diphenylacetyl)-8-(2-methyl-3-phenylpropionyl)-3,8-diazabicyclo [3.2.1]octane-2-carboxylic acid] | 50.2 nM |
| C/C(=C\c1ccccc1)C(=O)N1[C@H]2CC[C@@H]1[C@@H](C(=O)O)N(C(=O)C(c1ccccc1)c1ccccc1)C2 [Compound C231, (1R,2S,5S)-3-(2,2-diphenylacetyl)-8-((E)-2-methyl-3-phenylacryloyl)-3,8-diazabicyclo [3.2.1]octane-2-carboxylic acid] | 103 nM |
| CN(C)S(=O)(=O)NC(=O)[C@@H]1[C@H]2CC[C@@H](CN1C(=O)C(c1ccccc1)c1ccccc1)N2C(=O)OCc1ccccc1 [Compound C233] | 102 nM |
| C=CCc1ccc(CN(C)C(=O)N2[C@H]3CC[C@@H]2[C@@H](C(=O)O)N(C(=O)N(c2ccccc2)c2ccccc2)C3)cc1 [Compound C235, (1R,2S,5S)-8-((4-allylbenzyl)(methyl)carbamoyl)-3-(diphenylcarbamoyl)-3,8-diazabicyclo[3.2.1]octane-2-carboxylic acid] | 6.78 nM |
| CCCc1ccc(CN(C)C(=O)N2[C@H]3CC[C@@H]2[C@@H](C(=O)O)N(C(=O)N(c2ccccc2)c2ccccc2)C3)cc1 [Compound C236, (1R,2S,5S)-3-(diphenylcarbamoyl)-8-(methyl(4-propylbenzyl)carbamoyl)-3,8-diazabicyclo[3.2.1]octane-2-carboxylic acid] | 6.13 nM |
| O=C(O)[C@@H]1[C@H]2CC[C@@H](CN1C(=O)N(c1ccccc1)c1ccccc1)N2C(=O)c1ccccc1-c1ccccc1 [Compound C240, (1R,2S,5S)-8-([1,1′-biphenyl]-2-carbonyl)-3-(diphenylcarbamoyl)-3,8-diazabicyclo [3.2.1]octane-2-carboxylic acid] | 113 nM |
| Cn1cc(-c2ccccc2C(=O)N2[C@H]3CC[C@@H]2[C@@H](C(=O)O)N(C(=O)N(c2ccccc2)c2ccccc2)C3)cn1 [Compound C241, (1R,2S,5S)-3-(diphenylcarbamoyl)-8-(2-(1-methyl-1H-pyrazole-4-yl)benzoyl)-3,8-diazabicyclo [3.2.1]octane-2-carboxylic acid] | 156 nM |
| CCN(Cc1csc2ccccc12)C(=O)N1[C@H]2CC[C@@H]1[C@@H](C(=O)O)N(C(=O)N(c1ccccc1)c1ccccc1)C2 [Compound C245, (1R,2S,5S)-8-((benzo[b]thiophene-3-ylmethyl) (ethyl)carbamoyl)-3-(diphenylcarbamoyl)-3,8-diazabicyclo [3.2.1]octane-2-carboxylic acid] | 10.5 nM |
| CN(Cc1csc2ccccc12)C(=O)N1[C@H]2CC[C@@H]1[C@@H](C(=O)O)N(C(=O)N(c1ccccc1)c1ccccc1)C2 [Compound C246] | 10.1 nM |
| CN(Cc1ccc2cc[nH]c2c1)C(=O)N1[C@H]2CC[C@@H]1[C@@H](C(=O)O)N(C(=O)N(c1ccccc1)c1ccccc1)C2 [Compound C249, (1R,2S,5S)-8-(((1H-indole-6-yl)methyl)(methyl)carbamoyl)-3-(diphenylcarbamoyl)-3,8-diazabicyclo [3.2.1]octane-2-carboxylic acid] | 10.9 nM |
| CN(Cc1ccc(Cl)nc1)C(=O)N1[C@H]2CC[C@@H]1[C@@H](C(=O)O)N(C(=O)N(c1ccccc1)c1ccccc1)C2 [Compound C255] | 13.8 nM |
| O=C(O)[C@@H]1[C@H]2CC[C@@H](CN1C(=O)N(c1ccccc1)c1ccccc1)N2C(=O)C#Cc1ccccc1 [Compound C256, (1R,2S,5S)-3-(diphenylcarbamoyl)-8-(3-phenylpropioloyl)-3,8-diazabicyclo [3.2.1]octane-2-carboxylic acid] | 40 nM |
| O=C(O)[C@@H]1[C@H]2CC[C@@H](CN1C(=O)N(c1ccccc1)c1ccccc1)N2C(=O)Cc1c[nH]c2ccccc12 [Compound C259, (1R,2S,5S)-8-(2-(1H-indole-3-yl)acetyl)-3-(diphenylcarbamoyl)-3,8-diazabicyclo [3.2.1]octane-2-carboxylic acid] | 245 nM |
| CCN(Cc1ccoc1)C(=O)N1[C@H]2CC[C@@H]1[C@@H](C(=O)O)N(C(=O)N(c1ccccc1)c1ccccc1)C2 [Compound C260, (1R,2S,5S)-3-(diphenylcarbamoyl)-8-(ethyl (furan-3-ylmethyl)carbamoyl)-3,8-diazabicyclo [3.2.1]octane-2-carboxylic acid] | 29.6 nM |
| CN(Cc1ccc2ccccc2n1)C(=O)N1[C@H]2CC[C@@H]1[C@@H](C(=O)O)N(C(=O)N(c1ccccc1)c1ccccc1)C2 [Compound C265, (1R,2S,5S)-3-(diphenylcarbamoyl)-8-(methyl (quinoline-2-ylmethyl)carbamoyl)-3,8-diazabicyclo [3.2.1]octane-2-carboxylic acid] | 27.2 nM |
| CN(Cc1ccc2ncccc2c1)C(=O)N1[C@H]2CC[C@@H]1[C@@H](C(=O)O)N(C(=O)N(c1ccccc1)c1ccccc1)C2 [Compound C266, (1R,2S,5S)-3-(diphenylcarbamoyl)-8-(methyl (quinoline-6-ylmethyl)carbamoyl)-3,8-diazabicyclo [3.2.1]octane-2-carboxylic acid] | 1.63 nM |
| CN(C)[C@@H](Cc1ccccc1)C(=O)N1[C@H]2CC[C@@H]1[C@@H](C(=O)O)N(C(=O)N(c1ccccc1)c1ccccc1)C2 [Compound C269, (1R,2S,5S)-8-((S)-2-(dimethylamino)-3-phenylpropionyl)-3-(diphenylcarbamoyl)-3,8-diazabicyclo [3.2.1]octane-2-carboxylic acid] | 68.2 nM |
| CN(Cc1cc2ccccc2s1)C(=O)N1[C@H]2CC[C@@H]1[C@@H](C(=O)O)N(C(=O)N(c1ccccc1)c1ccccc1)C2 [Compound C271] | 14.5 nM |
| CCN(Cc1sccc1C)C(=O)N1[C@H]2CC[C@@H]1[C@@H](C(=O)O)N(C(=O)N(c1ccccc1)c1ccccc1)C2 [Compound C272, (1R,2S,5S)-3-(diphenylcarbamoyl)-8-(ethyl((3-methylthiophen-2-yl)methyl)carbamoyl)-3,8-diazabicyclo [3.2.1]octane-2-carboxylic acid] | 16.6 nM |
| CCN(Cc1cc(C)cs1)C(=O)N1[C@H]2CC[C@@H]1[C@@H](C(=O)O)N(C(=O)N(c1ccccc1)c1ccccc1)C2 [Compound C273, (1R,2S,5S)-3-(diphenylcarbamoyl)-8-(ethyl((4-methylthiophen-2-yl)methyl)carbamoyl)-3,8-diazabicyclo [3.2.1]octane-2-carboxylic acid] | 20.9 nM |
| CCN(Cc1csc(Cl)c1)C(=O)N1[C@H]2CC[C@@H]1[C@@H](C(=O)O)N(C(=O)N(c1ccccc1)c1ccccc1)C2 [Compound C274, (1R,2S,5S)-8-(((5-chlorothiophene-3-yl)methyl) (ethyl)carbamoyl)-3-(diphenylcarbamoyl)-3,8-diazabicyclo [3.2.1]octane-2-carboxylic acid] | 19.8 nM |
| Cc1cc(CN(C)C(=O)N2[C@H]3CC[C@@H]2[C@@H](C(=O)O)N(C(=O)C(c2ccccc2)c2ccccc2)C3)cs1 [Compound C277, (1R,2S,5S)-3-(2,2-diphenylacetyl)-8-(methyl((5-methylthiophen-3-yl)methyl)carbamoyl)-3,8-diazabicyclo [3.2.1]octane-2-carboxylic acid] | 10.5 nM |
| CCN(Cc1ccc(C)s1)C(=O)N1[C@H]2CC[C@@H]1[C@@H](C(=O)O)N(C(=O)C(c1ccccc1)c1ccccc1)C2 [Compound C278, (1R,2S,5S)-3-(2,2-diphenylacetyl)-8-(ethyl((5-methylthiophen-2-yl)methyl)carbamoyl)-3,8-diazabicyclo [3.2.1]octane-2-carboxylic acid] | 10.6 nM |
| CN(Cc1csc2ccccc12)C(=O)N1[C@H]2CC[C@@H]1[C@@H](C(=O)O)N(C(=O)C(c1ccccc1)c1ccccc1)C2 [Compound C279] | 24.2 nM |
| CCN(Cc1ccc(Cl)s1)C(=O)N1[C@H]2CC[C@@H]1[C@@H](C(=O)O)N(C(=O)N(c1ccccc1)c1ccccc1)C2 [Compound C281, (1R,2S,5S)-8-(((5-chlorothiophene-2-yl)methyl) (ethyl)carbamoyl)-3-(diphenylcarbamoyl)-3,8-diazabicyclo[3.2.1] octane-2-carboxylic acid] | 20.3 nM |
| O=C(O)[C@@H]1[C@@H]2CC[C@@H](CC2Oc2ccc([N+](=O)[O-])cc2)N1C(=O)C(c1ccccc1)c1ccccc1 (stereo partly drawn) [Compound C290, (1S,3S,4S)-2-(2,2-diphenyl-acetyl)-5-(4-nitrophenoxy)-2-azabicyclo [2.2.2]octane-3-carboxylic acid] | 561 nM |
| O=C(O)[C@@H]1[C@@H]2CC[C@@H](CC2OCc2cccc(Cl)c2)N1C(=O)C(c1ccccc1)c1ccccc1 (stereo partly drawn) [Compound C291, (1S,3S,4S)-5-((3-chloro-benzyl)oxy)-2-(2,2-diphenylacetyl)-2-azabicyclo [2.2.2]octane-3-carboxylic acid] | 765 nM |
| O=C(O)[C@@H]1[C@@H]2CC[C@@H](CC2OCc2ccccc2Cl)N1C(=O)C(c1ccccc1)c1ccccc1 (stereo partly drawn) [Compound C294, (1S,3S,4S)-5-((2-chloro-benzyl)oxy)-2-(2,2-diphenylacetyl)-2-azabicyclo [2.2.2]octane-3-carboxylic acid] | 666 nM |
| (1R,2S,5S)-3- (2,2-diphenylacetyl)- 8-(((2-fluorobenzyl) oxy)carbonyl)- 3,8-diazabicyclo [3.2.1]octane-2- carboxylic acid [Compound C35] | 36.6 nM |

Source: patent US11453690B2, “Receptor inhibitor, pharmaceutical composition comprising same, and use thereof” (BEIJING TIDE PHARMACEUTICAL CO., LTD., priority 2018, dated 2022)
